The text below walks through data of patent publication US10030006B2, “Coumarin based Hsp90 inhibitors with urea and ether substituents” (University of Kansas, priority 2013, dated 2018).

Where two headings read alike, the source gives them in different places. Bounds are passed on as bounds.

The subject of test [1] is MCF-7 (estrogen receptor positive breast cancer cells). The experiment in a line: Anti-proliferation assay (MTS/PMS, 72 h), MCF-7. In kind it is cell-based. The conditions noted are these: Homo sapiens, MCF7.
The next test deals with DRO81-1. The experiment in a line: Anti-proliferation assay, DRO81-1. In kind it is cell-based. The conditions noted are these: Thyroid. In a few lines: (§1)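 First, cells grown in DMEM/F12 plus 10% FBS were plated at 2000 per well and left to attach overnight. Next, graded compound concentrations were added at 1% DMSO final for 72 h. Finally, viable cell number was measured with MTS/PMS and IC50 derived.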

The next test deals with JMAR. The experiment in a line: Anti-proliferation assay, JMAR. In kind it is cell-based. The conditions noted are these: JMAR, HSNCC. Summed up:
as §1

For another test, the system named is MRC5. The experiment in a line: Anti-proliferation assay, MRC5 (normal). The test is classed as cell-based. The conditions noted are these: Homo sapiens. Summed up: as §1
For a further test, the system named is MDA1986. The experiment in a line: Anti-proliferation assay, MDA1986. The conditions noted are these: MDA1986, HSNCC. The test is classed as cell-based. Summed up:
as §1

In test [2] the test system is SKBr3 (estrogen receptor negative, Her2 over-expressing breast cancer cells). The experiment in a line: Anti-proliferation assay (MTS/PMS, 72 h), SKBr3. In kind it is cell-based. The conditions noted are these: Homo sapiens, SK-BR-3.
The next test concerns HMLE. The experiment in a line: Anti-proliferation assay, HMLE (normal). The note with it: HMLE. The test is classed as cell-based. In a few lines:
as §1

A further test has as its system HCT-116. The experiment in a line: Anti-proliferation assay, HCT-116. The conditions noted are these: Homo sapiens, HCT-116. In kind it is cell-based. Summed up: as §1
For the next test, the system named is MDAMB231. The experiment in a line: Anti-proliferation assay, MDAMB231. The test is classed as cell-based. The note with it: Homo sapiens, MDA-MB-231, Tri-Neg. In a few lines: as §1
Another test has as its system A-549. The experiment in a line: Anti-proliferation assay, A-549. The test is classed as cell-based. The note with it: Homo sapiens, A549. Summed up: as §1
The subject of a further test is BCPAP. The experiment in a line: Anti-proliferation assay, BCPAP. In kind it is cell-based. The note with it: Homo sapiens, BCPAP, Thyroid. On the procedure:
(§2) Cells were maintained in a 1:1 mixture of Advanced DMEM/F12 (Gibco) supplemented with non-essential amino acids, L-glutamine (2 mM), streptomycin (500 μg/mL), penicillin (100 units/mL), and 10% FBS. Cells were grown to confluence in a humidified atmosphere (37° C., 5% CO2), seeded (2000/well, 100 μL) in 96-well plates, and allowed to attach overnight. Compound at varying concentrations in DMSO (1% DMSO final concentration) was added, and cells were returned to the incubator for 72 h. At 72 h, the number of viable cells was determined using an MTS/PMS cell proliferation kit (Promega) per the manufacturer's instructions. Cells incubated in 1% DMSO were used at 100% proliferation, and values were adjusted accordingly. IC50 values were calculated from separate experiments performed in triplicate using GraphPad Prism.

Test [3] has as its system SKBr3 and MCF-7 cell lines. The experiment in a line: Anti-proliferative activity against both breast cancer cell lines (results in words). In kind it is cell-based. The conditions noted are these: text b189, two breast cancer cell lines. How it is done:
as §2
The anti-proliferative activity of these compounds is evaluated against two breast cancer cell lines, SKBr3 (estrogen receptor negative, Her2 over-expressing breast cancer cells) and MCF-7 (estrogen receptor positive breast cancer cells).

The subject of a further test is PC-3. The experiment in a line: Anti-proliferation assay, PC-3. The test is classed as cell-based. The conditions noted are these: Homo sapiens, PC-3, Prostate Cancer. Summed up:
as §1

Test [4] concerns SKBr3 (estrogen receptor negative, Her2 over-expressing breast cancer cells). The note with it: background, Marcu, et al., 2000; read-out: Hsp90 C-terminal inhibitor efficiency in SKBr3 cells; cited from earlier work.
Where [5] appears, read: Table 7, prenylated phenyl ureas, Breast Cancer, read-out: IC50 MCF-3.
Where [6] appears, read: Table 7, prenylated phenyl ureas.
Setting [7] is: MRC5, Table 7, prenylated phenyl ureas.
Where [8] appears, read: Table 7, prenylated phenyl ureas, Breast Cancer, read-out: IC50 SKBr3.
Setting [9] is: Table 6, substituted phenyl ureas, Breast Cancer, read-out: IC50 MCF-3.
Where [10] appears, read: Table 6, substituted phenyl ureas.
The mark [11] stands for this setting: MRC5, Table 6, substituted phenyl ureas.
The mark [12] stands for this setting: Table 6, substituted phenyl ureas, Breast Cancer, read-out: IC50 SKBr3.

As for `CC(C)=CCc1cc(NC(=O)Nc2cc3ccc(OC4CCN(C)CC4)c(C)c3oc2=O)ccc1O` [OH, 1-(4-hydroxy-3-(3-methylbut-2-en-1-yl)phenyl)-3-(8-methyl-7-((1-methylpiperidin-4-yl)oxy)-2-oxo-2H-chromen-3-yl)urea], the IC50 in [1] (setting [5]) is 370 nM; in test [1] (amide versus urea linkage, read-out: IC50 for MCF-3) it was 370 nM; in the test with DRO81-1 (setting [6]), 1100 nM; in the test on JMAR (setting [6]) it was 910 nM; with MRC5 (setting [7]) it was 4020 nM; in the test on MDA1986 (setting [6]), 1360 nM. Also, the IC50 in test [2] (setting [8]) was determined as 390 nM; in test [2] (amide versus urea linkage, read-out: IC50 for SKBr3), 390 nM; with HMLE (setting [6]), 4800 nM; with HCT-116 (setting [6]), 390 nM; in the test with MDAMB231 (setting [6]), 660 nM; in the test with A-549 (setting [6]), 250 nM. For the same compound, the IC50 was found to be 990 nM with BCPAP (setting [6]) and 290 nM in the test with PC-3 (setting [6]). For the same compound, the “increase in inhibition, urea versus amide linkage” value in test [3] is 2-3 fold.
In the case of `CO[C@@H]1[C@@H](OC(N)=O)[C@@H](O)[C@H](Oc2ccc3c(O)c(NC(=O)c4ccc(O)c(CC=C(C)C)c4)c(=O)oc3c2C)OC1(C)C` [Novobiocin], in test [4], the IC50 is ~700000 nM.
For `COc1cc(NC(=O)Nc2cc3ccc(OC4CCN(C)CC4)c(C)c3oc2=O)cc(OC)c1OC` [3,4,5-trimethoxyl, 1-(8-methyl-7-((1-methylpiperidin-4-yl)oxy)-2-oxo-2H-chromen-3-yl)-3-(3,4,5-trimethoxyphenyl)urea], the IC50 is 1300 nM in [1] (setting [9]); 14700 nM in the test on DRO81-1 (setting [10]); 1700 nM with JMAR (setting [10]); > 25000 nM with MRC5 (setting [11]); 9100 nM with MDA1986 (setting [10]); 4260 nM in [2] (setting [12]). Moreover, the IC50 is > 25000 nM in the test on HMLE (setting [10]); 209000 nM with HCT-116 (setting [10]); 2900 nM in the test with MDAMB231 (setting [10]); 13000 nM in the test with A-549 (setting [10]); 1320 nM with BCPAP (setting [10]); 4500 nM in the test with PC-3 (setting [10]).
In the case of `Cc1c(OC2CCN(C)CC2)ccc2cc(NC(=O)Nc3ccc(N(C)C)cc3)c(=O)oc12` [p-N-dimethylamine, 1-(4-(dimethylamino)phenyl)-3-(8-methyl-7-((1-methylpiperidin-4-yl)oxy)-2-oxo-2H-chromen-3-yl)urea], the IC50 is 1000 nM in test [1] (setting [9]); > 25000 nM in the test on DRO81-1 (setting [10]); 770 nM in the test on JMAR (setting [10]); 14400 nM in the test with MRC5 (setting [11]); 17500 nM with MDA1986 (setting [10]); 1110 nM in test [2] (setting [12]). Besides, the IC50 in the test with HMLE (setting [10]) came to 960 nM; with HCT-116 (setting [10]), 9340 nM; with MDAMB231 (setting [10]) it was 1400 nM; with A-549 (setting [10]), 2700 nM; in the test on BCPAP (setting [10]) it was 740 nM; in the test on PC-3 (setting [10]), 7960 nM.
Regarding `COc1ccc(NC(=O)Nc2cc3ccc(OC4CCN(C)CC4)c(C)c3oc2=O)cc1CC=C(C)C` [OMe, 1-(4-methoxy-3-(3-methylbut-2-en-1-yl)phenyl)-3-(8-methyl-7-((1-methylpiperidin-4-yl)oxy)-2-oxo-2H-chromen-3-yl)urea], the IC50 stood at 370 nM in test [1] (setting [5]); 210 nM in the test on DRO81-1 (setting [6]); 800 nM in the test on JMAR (setting [6]); 2640 nM in the test with MRC5 (setting [7]); 850 nM in the test with MDA1986 (setting [6]); 510 nM in test [2] (setting [8]). For the same compound, the IC50 worked out at 6500 nM in the test on HMLE (setting [6]); 300 nM in the test with HCT-116 (setting [6]); 830 nM in the test with MDAMB231 (setting [6]); 230 nM in the test on A-549 (setting [6]); 1340 nM with BCPAP (setting [6]); 230 nM in the test on PC-3 (setting [6]).
